From patent publication US20070167403A1, “Remedy for spinal canal stenosis” (priority 2003, published 2007)

System: rat
Type: in vivo
Details: intravenous administration
Experimental: It has been confirmed that the compounds used in the present invention have low toxicity and are sufficiently safe for use as pharmaceutical preparations. For example, the maximal tolerated dose of the compound A (lysine salt of (5Z,9β,11α,13E)-17,17-propano-11,16-dihydroxy-9-chloro-20-norprosta-5,13-dienoic acid) in the compound represented by formula (I) used in the present invention was 30 mg/kg weight or more for rat intravenous administration.

CCC1(C(O)CC=CC2C(O)CC(Cl)C2CC=CCCCC(=O)O)CCC1.NCCCCC(N)C(=O)O (stereo not drawn) [Compound A, (5Z,9β,11α,13E)-17,17-propano-11,16-dihydroxy-9-chloro-20-norprosta-5,13-dienoic acid lysine salt]
maximal tolerated dose: ≥ 30 mg/kg weight
